Read-outs that look alike come from different tables or passages of the source. Some results are limits rather than exact numbers.

Series [1] concerns HER2+ and EGFR+breast cancer cells. The series can be described thus: Mammosphere forming efficiency with Rac inhibitors. Type of series: cell-based.
The subject of series [2] is Rac. The series is described as follows: Effective concentration of Rac inhibitors. The conditions noted are these: relative to NSC23766.
The subject of series [3] is MDA-MB-435 HER2+ cells resistant to lapatinib and trastuzumab. The series is described as follows: MTT cell viability assay, therapy resistant MDA-MB-435 variant. Type of series: cell-based. The conditions noted are these: 48 h.
Series [4] relates to SKBR3 lapatinib resistant cells. The series can be described thus: Caspase-Glo 3/7 apoptosis assay, lapatinib resistant SKBR3 cells. Type of series: cell-based, human. The protocol: (§1) FIG. 3A-3B. Apoptosis in therapy sensitive and resistant variants Apoptosis in therapy sensitive and resistant SKBR3 cell variants was detected by a Caspase-Glo 3/7 Assay. (A) Fold change in Caspase 3/7 activity in the therapy sensitive SKBR3 cell line following Gef or Lap treatment for 48 h compared to the vehicle controls. (B) Fold change in caspase 3/7 activity in the therapy resistant cell lines following treatment compared to non-treated cells. N=3±SEM, *=p≤0.05, ***=p≤0.005
(§2) FIG. 6A-6F. […] N=3±SEM *=p≤0.05, **=p≤0.01****=p≤0.001.
(§3) Apoptosis was analyzed by the Caspase-Glo 3/7 activity assay (Promega) as described by the manufacturer. Briefly, cells were seeded in a 96 well plate and treated for 48h. Luminogenic caspase- 3/7 substrate containing a DEVD sequence was added and incubated for 1h. The luminescence was measured by a plate-reading luminometer.

Series [5] concerns SKBR3 lapatinib resistant (Lap.R) cells. The series can be described thus: MTT cell viability assay, lapatinib resistant SKBR3 variant. The conditions noted are these: for decrease in cell viability: Lap.R SKBR3.
In series [6] the test system is Trastuzumab resistant SKBR3 cells. The series can be described thus: MTT cell viability assay, Trastuzumab resistant SKBR3 variant. Type of series: cell-based. The conditions noted are these: Homo sapiens; for cytotoxicity at 0.25 µM: SK-BR-3. A general note: Tetrazolium assays rely on reduction of a dye to a coloured formazan, in cell work by metabolically active cells.

The test system of series [7] is Trastuzumab resistant SKBR3 variant. The series is described as follows: Caspase 3/7 apoptosis assay, Trastuzumab resistant SKBR3 variant. Type of series: cell-based, human.
The test system of series [8] is gefitinib resistant SKBR3 variants. The series is described as follows: Cell phenotype of gefitinib resistant SKBR3 variants after Rac inhibitor. Type of series: cell-based, human.
In series [9] the test system is SKBR3 gefitinib resistant (Gef.R) cells. Type of series: cell-based, human.
Series [10] deals with SKBR3 therapy sensitive cells. The series is described as follows: MTT cell viability assay, therapy sensitive SKBR3 cells. The conditions noted are these: 5 and 10 μM, 24 h. Type of series: cell-based, human.
Excerpt: as §2

Series [11] relates to Rac. The conditions noted are these: Tiam1/Rac inhibitor, most studies; cited from earlier work.
Series [12] deals with SKBR3 therapy sensitive cells. The series is described as follows: Mammosphere assay, therapy sensitive SKBR3 cells. The conditions noted are these: 0.5 μM gefitinib or 0.1 μM lapatinib.
Series [13] relates to SKBR3 therapy resistant variants. The series is described as follows: Mammosphere assay, therapy resistant SKBR3 variants. The conditions noted are these: therapy resistant variants treated with gefitinib or lapatinib.
The test system of series [14] is SKBR3 therapy sensitive cells. The series is described as follows: Caspase-Glo 3/7 apoptosis assay, therapy sensitive SKBR3 cells. Type of series: cell-based, human. The conditions noted are these: gefitinib, 48 h, vs vehicle. The protocol:
as §1, §3

A further series deals with HER2 (Homo sapiens, UniProt P04626).
Where [15] appears, read: MBQ-167 250 nM, Lapatinib resistant SKBR3.

For `CCn1c2ccccc2c2cc(-n3nncc3-c3ccccc3)ccc21` (racemic) [MBQ-167], in series [1], the “mammosphere forming efficiency (MFE)” value is given as “significantly reduce the MFE”. For the same molecule, in the series with Rac [2], the “effective concentration lower than NSC23766” value is recorded as 100 ×. Further, the “decrease in cell viability” value in series [3] (MBQ-167 alone), in [5] (0.5 μM MBQ-167 alone) and in series [5] (0.5 μM MBQ-167 in combination with 0.5 μM lapatinib) was roughly 40% each time. Further, in series [3] (MBQ-167 in the presence of trastuzumab), the cell viability entry is given as “inhibits MDA-MB-435 cell viability”. In series [4] (MBQ-167 0.25 μM alone, Lap.R SKBR3), the “increase in caspase 3/7 activity” value is listed as greater than 2 fold. In series [4] (MBQ-167 0.25 μM in combination with lapatinib 0.5 μM, Lap.R SKBR3), the caspase activity entry was “even higher significant increase in caspase activity”. This molecule registered an apoptosis induction in series [4] (setting [15]) of 55%. Also, the reduction of viability in [5] (setting [15]) is 30%. Moreover, the IC50 in [6] (SK-BR-3, read-out: IC50 (cell viability)) is 100 nM. Besides, the cytotoxicity at 0.25 µM in series [6] (96 and 120h, 250 nM MBQ-167, read-out: reduction of viability) is 90 to 100%; in series [6] (72 h, saturated at 250 nM, read-out: decrease in viability), 50%. Moreover, the “apoptosis (Caspase 3/7)” value in [7] (MBQ-167 in the presence of Trastuzumab) was “only partially overcame this resistance to apoptosis”; in series [7] (single agent, MBQ-167 at 250-750 nM), “induced apoptosis”. In addition, in series [8], the cell phenotype result was “cell rounding, detachment from the substrate, and subsequent death”.

Turning to `CCn1c2ccccc2c2cc(Nc3ccnc(NCCCN4CCOCC4)n3)ccc21` [EHop-016], the “mammosphere forming efficiency (MFE)” value in series [1] is recorded as “significantly reduce the MFE”. For the same molecule, the “effective concentration lower than NSC23766” value in the series with Rac [2] came to 100 ×. Further, the cell viability entry is listed as “statistically significant decrease in cell viability” in series [9]; “statistically significant decrease in cell viability” in series [5] (lapatinib resistant SKBR3, 5 and 10 μM, 24 h); “statistically significant decrease in cell viability” in [10].

As for `CCN(CC)CCCC(C)Nc1nc(C)cc(Nc2ccc3nc(C)cc(N)c3c2)n1` (centres unmarked) [NSC23766], the active concentration in the series with Rac [11] is 50 to 100 µM.

Consider `COc1cc2ncnc(Nc3ccc(F)c(Cl)c3)c2cc1OCCCN1CCOCC1` [gefitinib], for which the mammosphere formation result in [12] is “significant reduction in mammosphere formation”; in series [13] it was “no significant effect on mammosphere formation”. Further, in series [14], the “apoptosis (caspase 3/7 activity)” value is on record as “did not respond to gefitinib by apoptosis”.

As for `CS(=O)(=O)CCNCc1ccc(-c2ccc3ncnc(Nc4ccc(OCc5cccc(F)c5)c(Cl)c4)c3c2)o1` [lapatinib], the “sensitivity of cell viability” value in series [3] (single agent) is on record as “insensitive”. For the same molecule, the mammosphere formation entry is “significant reduction in mammosphere formation” in series [12] and “no significant effect on mammosphere formation” in [13]. Further, the “caspase 3/7 activity” value in series [4] (lapatinib resistant variant in response to lapatinib) is recorded as “significant decrease in caspase 3/7 activity”. Besides, the cell viability result in series [5] (Lap.R cells, lapatinib alone) was “did not affect the viability”. In addition, the “expression of total HER2” value at HER2 (sensitive SKBR3 cells, 24 h, 0.5 μM gefitinib, 0.1 μM lapatinib) is given as “significantly elevated”. At HER2 (variants resistant to gefitinib 0.1 μM and lapatinib 0.1 μM, each with its own drug), the pHER2 levels entry is “decreased pEGFR and pHER2 levels”.

Broadly, the IC50 is the point on the concentration scale where inhibition reaches its midpoint.
